These results are taken from patent publication US7235518B2, “Fabric care compositions comprising hueing dye” (The Procter & Gamble Company, priority 2004, dated 2007).

Series [1] can be described thus: Water solubility of brightener. It is filed as physicochemical. The source says:
Brighteners should have some water solubility for easy incorporation into the fabric conditioning composition. […] Fluorescent whitening agents, generally due to their low water solubility, are difficult to incorporate into liquid fabric conditioning compositions. Often it is advantageous to post-add brighteners to a finished base product. One convenient way to do this is to make a brighteners premix.

Series [2] in a line: Chemical stability of brightener in acidic product matrix. Type of series: physicochemical. The following applies: biodegradable fabric conditioning compositions, pH from about 3 to about 4.

Structures are written as SMILES.

Consider `O=S(=O)(O)c1ccccc1C=Cc1ccc(-c2ccc(C=Cc3ccccc3S(=O)(=O)O)cc2)cc1.[Na].[Na]` [Tinopal CBS-X, Disodium 4,4′-bis-(2-sulfostyryl) biphenyl], for which the water solubility in series [1] (25 C) is given as 2.5%; in series [1] (25° C.) it was “about 2.5 weight percent”. Further, in series [2], the “chemical stability in the acidic product matrix” value was “better than some other brighteners”.
